# Reference: paper PMC2994747, “Molecular Characterization of c-Abl/c-Src Kinase Inhibitors Targeted against Murine Tumour Progenitor Cells that Express Stem Cell Markers” (PLoS ONE, 2010)
# How the values were obtained:
# A549 = test: Whole genome expression analysis (Affymetrix microarray); format: cell-based, human; settings: IC50 concentration, 96 h
# Experimental: (§1) The cells were harvested and RNA was isolated using RNeasy Mini Kit (Qiagen, Hilden, Germany) according to the instructions of the manufacturer. The isolated RNA (250 ng) was processed further using standard protocols as described recently with the exception of the 3′ IVT Express Kit (Affymetrix, High Wycombe, UK) that was utilized according to instructions. Quality control of cRNA was done with the Agilent 2100 Bioanalyzer (Agilent Tech according to manufacturer's protocols. Following fragmentation, cRNA of each sample was hybridized to Affymetrix GeneChip® Mouse Genome 430 2.0 or Human Genome U133 Plus 2.0 and scanned with an Affymetrix 3000 7G scanner.
# (§2) The resultant data was normalized by Probe Logarithmic Intensity Error Estimation (PLIER) algorithm. Statistical analysis was carried out with the ArrayTrack software (National Center for Toxicological Research/FDA, Jefferson, AR, USA) using SAM algorithm.
# CaCo2 = test: as above; format: cell-based, human; settings: IC50 concentration, 96 h
# Experimental: as §1, §2
# HepG2 = test: as above; format: cell-based, human; settings: IC50 concentration, 96 h
# Experimental: as §1, §2
# GammaA3 = test: as above; format: cell-based, mouse; settings: IC50 concentration, 96 h
# Experimental: as §1, §2
# A2C12 [1] = test: as above; format: cell-based, mouse; settings: IC50 concentration, 96 h
# Experimental: as §1, §2
# A2C12 [2] = test: Cell cycle analysis by flow cytometry; format: cell-based, mouse; settings: IC50 concentration, 96 h
# How it was run: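 Trypsinized cells, PBS wash, resuspend in kit buffer; spin, solution A 10 min RT; add solution B, incubate; add solution C, 4°C, dark. Kept on ice, light-protected, until flow cytometry.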
# all tested cell lines = test: Caspase-Glo 3/7 activity assay, all tested cell lines; format: cell-based; settings: IC50 concentration, 24 h; vs vehicle
# Experimental: According to instructions, Caspase-Glo® 3/7 assay (Promega GmbH, Mannheim, Germany) was used for monitoring caspase activity. Briefly, the same volume Caspase-Glo reagent as culture medium was added and incubated 1 h at room temperature. Luminescence was read with a Victor3 Wallac 1420 Multilabel counter (PerkinElmer, Rodgau, Germany). Background absorbance (medium only) was subtracted and the data given as percent of vehicle controls.
smiles,measurement,setting,value
Clc1cccc(Nc2nc(SC3CCCC3)nc3c2cnn3CC(Cl)c2ccccc2)c1 (stereo not shown) [Si135],"Significantly differentially regulated genes, downregulated (number)","A549; SAM FDR<0.01, FC>2",17
same,"Significantly differentially regulated genes, upregulated (number)","A549; SAM FDR<0.01, FC>2",61
same,Cdcp1 gene expression,A549; vs control,1.23 log2 of fold change
same,Ceacam6 gene expression,A549; vs control,1.63 log2 of fold change
same,Il8 gene expression,A549; vs control,1.20 log2 of fold change
same,Lamb3 gene expression,A549; vs control,1.08 log2 of fold change
same,Ptgs2 gene expression,A549; vs control,1.05 log2 of fold change
same,Vcan gene expression,A549; vs control,-4.42 log2 of fold change
same,"Significantly differentially regulated genes, downregulated (number)","CaCo2; SAM FDR<0.01, FC>2",55
same,"Significantly differentially regulated genes, upregulated (number)","CaCo2; SAM FDR<0.01, FC>2",193
same,Birc5 gene expression,CaCo2; vs control,-4.36 log2 of fold change
same,Cav1 gene expression,CaCo2; vs control,1.30 log2 of fold change
same,Cdkn1a gene expression,CaCo2; vs control,1.00 log2 of fold change
same,Ceacam1 gene expression,CaCo2; vs control,1.47 log2 of fold change
same,Ceacam6 gene expression,CaCo2; vs control,1.25 log2 of fold change
same,Cxcl2 gene expression,CaCo2; vs control,1.16 log2 of fold change
same,Dusp1 gene expression,CaCo2; vs control,1.05 log2 of fold change
same,Flnc gene expression,CaCo2; vs control,1.43 log2 of fold change
same,Itga2 gene expression,CaCo2; vs control,1.02 log2 of fold change
same,Jun gene expression,CaCo2; vs control,1.51 log2 of fold change
same,Lamc2 gene expression,CaCo2; vs control,1.27 log2 of fold change
same,Mtss1 gene expression,CaCo2; vs control,-4.64 log2 of fold change
same,Ptn gene expression,CaCo2; vs control,-4.50 log2 of fold change
same,Tgfb1i1 gene expression,CaCo2; vs control,1.67 log2 of fold change
same,Thbs (thrombospondin 1) gene expression,CaCo2; vs control,-4.36 log2 of fold change
same,Tnc gene expression,CaCo2; vs control,-6.40 log2 of fold change
same,Tuba1a gene expression,CaCo2; vs control,2.27 log2 of fold change
same,"Significantly differentially regulated genes, downregulated (number)","HepG2; SAM FDR<0.01, FC>2",0
same,"Significantly differentially regulated genes, upregulated (number)","HepG2; SAM FDR<0.01, FC>2",87
same,Dusp1 gene expression,HepG2; vs control,1.56 log2 of fold change
same,Hnrnpr gene expression,HepG2; vs control,1.08 log2 of fold change
same,Jun gene expression,HepG2; vs control,1.34 log2 of fold change
same,Pik3ca gene expression,HepG2; vs control,2.01 log2 of fold change
same,Ptk2 (FAK) gene expression,HepG2; vs control,1.20 log2 of fold change
same,"Significantly differentially regulated genes, downregulated (number)","GammaA3; SAM FDR<0.01, FC>2",66
same,"Significantly differentially regulated genes, upregulated (number)","GammaA3; SAM FDR<0.01, FC>2",79
same,Actg2 gene expression,GammaA3; vs control,-1.23 log2 of fold change
same,Ccl5 gene expression,GammaA3; vs control,3.04 log2 of fold change
same,Cenpa gene expression,GammaA3; vs control,1.11 log2 of fold change
same,Col1a1 gene expression,GammaA3; vs control,-1.15 log2 of fold change
same,Has2 gene expression,GammaA3; vs control,-1.09 log2 of fold change
same,Itga6 gene expression,GammaA3; vs control,1.72 log2 of fold change
same,Mapk8ip1 gene expression,GammaA3; vs control,-1.05 log2 of fold change
same,Mmp3 gene expression,GammaA3; vs control,1.52 log2 of fold change
same,Mmp13 gene expression,GammaA3; vs control,1.29 log2 of fold change
same,Ngef gene expression,GammaA3; vs control,1.56 log2 of fold change
same,Tbrg4 gene expression,GammaA3; vs control,-1.09 log2 of fold change
same,Ywhaz gene expression,GammaA3; vs control,-1.04 log2 of fold change
same,Zyx gene expression,GammaA3; vs control,-1.34 log2 of fold change
same,"Significantly differentially regulated genes, downregulated (number)","A2C12 [1]; SAM FDR<0.01, FC>2",33
same,"Significantly differentially regulated genes, upregulated (number)","A2C12 [1]; SAM FDR<0.01, FC>2",118
same,Actg2 gene expression,A2C12 [1]; vs control,-4.51 log2 of fold change
same,Ctgf gene expression,A2C12 [1]; vs control,1.05 log2 of fold change
same,Dusp3 gene expression,A2C12 [1]; vs control,1.06 log2 of fold change
same,Gadd45a gene expression,A2C12 [1]; vs control,1.81 log2 of fold change
same,Il6 gene expression,A2C12 [1]; vs control,-4.69 log2 of fold change
same,Mmp13 gene expression,A2C12 [1]; vs control,2.95 log2 of fold change
same,Mtm1 gene expression,A2C12 [1]; vs control,1.00 log2 of fold change
same,Ptn gene expression,A2C12 [1]; vs control,-5.35 log2 of fold change
same,Ptprg gene expression,A2C12 [1]; vs control,1.05 log2 of fold change
same,Cells in G1 phase,A2C12 [2],54.5%
same,Cells in G2 phase,A2C12 [2],12.6%
same,Cells in S phase,A2C12 [2],33%
CSc1nc(NCCc2ccc(Cl)cc2)c2cnn(CC(Cl)c3ccccc3)c2n1 (stereo not shown) [Si57],Change of caspase-3/7 activity in all cell lines,all tested cell lines,declined
same,Cells in G1 phase,A2C12 [2],44.1%
same,Cells in G2 phase,A2C12 [2],12.2%
same,Cells in S phase,A2C12 [2],43.7%
